For one molecule, lethality results are on record in patent publication US20120028837A1, “RAPID SCREEN FOR REPRODUCTIVE TOXICANTS” (PRESIDENT AND FELLOWS OF HARVARD COLLEGE, priority 2010, published 2012).

In this series the test system is xol-1::GFP worms. The series can be described thus: Lethality, chemical sensitivity of xol-1::GFP strain. The class given is in vivo, C. elegans. Conditions: 100 μM, 500 μM and 1 mM, four days from eggs to adulthood, 25 worms. As to the method: The sensitivity of the xol-1::GFP, nx3 strain compared to the xol-1::GFP strain was assayed by exposing 25 worms for four days (from eggs to adulthood) to a range of concentration of Bisphenol A: 100 μM, 500 μM and 1 mM. The nx3 cuticle mutation was expected to confer increased sensitivity to BPA.

As for `CC(C)(c1ccc(O)cc1)c1ccc(O)cc1` [BPA, Bisphenol A], the lethality worked out at 0%.
